# Assay results as given in patent publication US9982152B2, “Active energy ray curable composition, cured product, composition storage container, two-dimensional or three-dimensional image forming apparatus, and two-dimensional or three-dimensional image forming method” (Ricoh Company, Ltd., priority 2016, dated 2018).
# Read-outs that look alike come from different tables or passages of the source.
# What was measured:
# [1] = data source SDS, GHS hazard category for skin sensitizers or negative in a skin sensitization test, cited from earlier work
# [2] = LLNA (Local Lymph Node Assay), SI (Stimulus Index); format: in vivo; settings: for Skin Sensitization Potential: judged from SI by LLNA; for SI (by LLNA): measured according to method of JP-2012-140593-A
# Source text: In the present disclosure, compounds having skin sensitization potential refer to those determined to be positive in a skin sensitization test. Hereinafter, such compounds may also be referred to as “skin-sensitizing compounds” or “skin sensitizers”. The skin sensitization test is not limited to a specific test. As an example of the skin sensitization test, LLNA (Local Lymph Node Assay) is known that evaluates the degree of sensitization potential by SI (Stimulus Index). SI of 3 or more is determined to be positive.
# Skin sensitization information described in Table 1 was obtained from SDSs available in Japan or other countries. SI (determined by LLNA) values described in Table 1 were measured according to a method described in JP-2012-140593-A.
compound,measurement,setting,value
"C=CC(=O)NCCO [(A-2), N-(2-Hydroxyethyl)acrylamide]",Skin Sensitization Potential,[1],Negative
same,Skin Sensitization Potential,[1]; listed as HEAA,negative
"C=C(C)C(=O)OCC(C)(C)COC(=O)C(=C)C [(A-5), Neopentyl glycol dimethacrylate]",Skin Sensitization Potential,[2],Negative
same,Skin Sensitization Potential,[2]; listed as neopentyl glycol dimethacrylate,non-skin-sensitizing
same,SI (by LLNA),[2],SI = 2.0
"Cc1cc(C)c(C(=O)P(=O)(c2ccccc2)c2ccccc2)c(C)c1 [(B1-1), Diphenyl(2,4,6-trimethylbenzoyl)phosphine oxide]",Skin Sensitization Potential,[1],1B
same,Skin Sensitization Potential,[1]; listed as IRGACURE TPO,sub-category 1B
"Cc1cc(C)c(C(=O)P(=O)(C(=O)c2c(C)cc(C)cc2C)c2ccccc2)c(C)c1 [(B1-2), Phenylbis(2,4,6-trimethylbenzoyl)phosphine oxide]",Skin Sensitization Potential,[1],Category 1
same,Skin Sensitization Potential,[1]; listed as IRGACURE 819,category 1
"CCCCCCC(=NOC(=O)c1ccccc1)C(=O)c1ccc(Sc2ccccc2)cc1 [(B1-3), 1-[4-(Phenylthio)phenyl]octane-1,2-dione 2-(o-benzoyloxime)]",Skin Sensitization Potential,[1],Category 1
same,Skin Sensitization Potential,[1]; listed as IRGACURE OXE01,category 1
"CCn1c2ccc(C(=O)c3ccccc3C)cc2c2cc(C(C)=NOC(C)=O)ccc21 [(B1-4), 1-[9-Ethyl-6-(2-methylbenzoyl)-9H-carbazole-3-yl]ethanone o-acetyloxime]",Skin Sensitization Potential,[1],1B
same,Skin Sensitization Potential,[1]; listed as IRGACURE OXE02,sub-category 1B
"CSc1ccc(C(=O)C(C)(C)N2CCOCC2)cc1 [(B2-1), 2-Methyl-1-[4-(methylthio)phenyl]-2-morpholinopropane-1-one]",Skin Sensitization Potential,[1],Negative
same,Skin Sensitization Potential,[1]; listed as IRGACURE 907,negative
"CCC(Cc1ccc(C)cc1)(C(=O)c1ccc(N2CCOCC2)cc1)N(C)C (stereo not drawn) [(B2-2), 2-(Dimethylamino)-2-[(4-methylphenyl)methyl]-1-(4-morpholinophenyl)butane-1-one]",Skin Sensitization Potential,[1],Negative
same,Skin Sensitization Potential,[1]; listed as IRGACURE 379,negative
"O=C(c1ccccc1)C1(O)CCCCC1 [(B2-3), 1-Hydroxycyclohexyl phenyl ketone]",Skin Sensitization Potential,[1],Negative
same,Skin Sensitization Potential,[1]; listed as IRGACURE 184,negative
"CC(C)(O)C(=O)c1ccc(OCCO)cc1 [(B2-4), 1-[4-(2-hydroxyethoxy)phenyl]-2-hydroxy-2-methylpropane-1-one]",Skin Sensitization Potential,[1],Negative
same,Skin Sensitization Potential,[1]; listed as IRGACURE 2959,negative
Tricyclodecane dimethanol dimethacrylate [(A-4)],Skin Sensitization Potential,[2],Negative
same,Skin Sensitization Potential,[2]; listed as tricyclodecane dimethanol dimethacrylate,non-skin-sensitizing
same,SI (by LLNA),[2],SI = 1.3
